Structures can show the parent of a compound that is named as a salt.
Tests used:
DAT = molecular target: T1, DAT (Rattus norvegicus, UniProt P23977); assay: DAT uptake inhibition, [3H]DA, rat brain; assay type: biochemical; settings: number in parentheses within cell
T1 construct: from tissue; host or cells: rat brain

SERT = molecular target: T2, SERT (Rattus norvegicus, UniProt P31652); assay: SERT uptake inhibition, [3H]-5-HT, rat brain; assay type: biochemical; settings: number in parentheses within cell
T2 construct: from tissue; host or cells: rat brain
T2 sequence (P31652 whole entry): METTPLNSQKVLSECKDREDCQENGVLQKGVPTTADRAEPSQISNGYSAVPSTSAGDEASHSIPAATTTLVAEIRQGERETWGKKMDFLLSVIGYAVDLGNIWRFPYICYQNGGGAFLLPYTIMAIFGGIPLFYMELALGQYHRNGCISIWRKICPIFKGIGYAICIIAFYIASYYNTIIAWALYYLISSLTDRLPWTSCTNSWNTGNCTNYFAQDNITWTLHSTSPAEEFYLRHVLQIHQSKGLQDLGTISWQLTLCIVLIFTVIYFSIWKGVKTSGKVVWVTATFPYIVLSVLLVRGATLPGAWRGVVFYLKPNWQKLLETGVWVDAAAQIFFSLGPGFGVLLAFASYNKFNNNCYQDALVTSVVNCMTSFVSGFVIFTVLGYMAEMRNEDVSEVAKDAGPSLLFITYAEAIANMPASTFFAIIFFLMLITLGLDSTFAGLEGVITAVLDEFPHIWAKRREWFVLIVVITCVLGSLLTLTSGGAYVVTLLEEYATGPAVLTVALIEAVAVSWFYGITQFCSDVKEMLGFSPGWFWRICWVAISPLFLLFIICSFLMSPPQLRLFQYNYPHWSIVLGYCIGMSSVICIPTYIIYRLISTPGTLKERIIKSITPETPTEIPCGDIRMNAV

NET = molecular target: T3, NET (Rattus norvegicus, UniProt Q63380); assay: NET uptake inhibition, [3H]DA, rat brain; assay type: biochemical; settings: number in parentheses within cell
T3 construct: from tissue; host or cells: rat brain
T3 sequence (Q63380 1-617): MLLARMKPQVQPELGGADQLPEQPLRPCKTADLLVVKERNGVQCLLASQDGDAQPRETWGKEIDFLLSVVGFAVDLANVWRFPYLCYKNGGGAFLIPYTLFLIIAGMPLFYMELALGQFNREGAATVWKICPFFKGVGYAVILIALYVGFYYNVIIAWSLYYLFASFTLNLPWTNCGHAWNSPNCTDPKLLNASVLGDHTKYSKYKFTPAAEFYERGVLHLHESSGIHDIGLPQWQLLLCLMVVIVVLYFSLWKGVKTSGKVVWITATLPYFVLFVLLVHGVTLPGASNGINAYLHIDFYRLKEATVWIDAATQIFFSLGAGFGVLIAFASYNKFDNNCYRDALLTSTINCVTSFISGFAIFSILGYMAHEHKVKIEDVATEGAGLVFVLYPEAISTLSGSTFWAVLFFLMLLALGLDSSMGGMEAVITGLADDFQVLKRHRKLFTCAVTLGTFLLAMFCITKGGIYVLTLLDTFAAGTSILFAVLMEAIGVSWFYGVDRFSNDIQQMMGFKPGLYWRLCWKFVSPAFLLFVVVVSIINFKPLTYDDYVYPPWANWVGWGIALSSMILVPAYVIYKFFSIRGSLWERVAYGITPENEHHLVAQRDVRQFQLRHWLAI

T1 sequence (P23977 whole entry): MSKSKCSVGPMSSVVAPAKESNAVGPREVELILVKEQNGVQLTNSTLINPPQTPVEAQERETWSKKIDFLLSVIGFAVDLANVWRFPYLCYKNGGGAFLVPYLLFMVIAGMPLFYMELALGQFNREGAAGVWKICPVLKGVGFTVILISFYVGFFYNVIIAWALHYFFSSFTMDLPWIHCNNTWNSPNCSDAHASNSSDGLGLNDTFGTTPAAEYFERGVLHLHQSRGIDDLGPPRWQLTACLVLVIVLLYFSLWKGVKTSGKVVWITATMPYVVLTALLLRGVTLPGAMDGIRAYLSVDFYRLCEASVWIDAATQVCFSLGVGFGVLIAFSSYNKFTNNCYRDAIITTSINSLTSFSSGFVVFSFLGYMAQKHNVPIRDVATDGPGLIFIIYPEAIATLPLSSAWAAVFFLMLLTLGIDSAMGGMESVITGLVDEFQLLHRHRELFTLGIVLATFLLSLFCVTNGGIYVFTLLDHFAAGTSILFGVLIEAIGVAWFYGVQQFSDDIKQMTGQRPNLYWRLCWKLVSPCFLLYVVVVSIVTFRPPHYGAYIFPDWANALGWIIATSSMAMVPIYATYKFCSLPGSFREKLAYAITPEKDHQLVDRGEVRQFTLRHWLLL

SMILES	Ki (DAT) [nM]	Ki (SERT) [nM]	Ki (NET) [nM]	melting point [°C]
c1ccc(C(c2ccccc2)[C@@H]2CC[C@H](NCc3ccc4occc4c3)CO2)cc1 [2a, D-484, (3S,6S)-6-benzhydryl-N-(benzofuran-5-ylmethyl)tetrahydro-2H-pyran-3-amine]	81.9 ± 17.9	0.71 ± 0.085	25.2 ± 5.3	
O[C@@H]1C[C@@H](C(c2ccccc2)c2ccccc2)OC[C@H]1NCc1ccc2cc[nH]c2c1 (as salt: oxalate) [4b, D-544, (2S,4R,5R)-5-(((1H-indol-6-yl)methyl)amino)-2-benzhydryltetrahydro-2H-pyran-4-ol]				152 to 154
O[C@@H]1C[C@@H](C(c2ccc(F)cc2)c2ccc(F)cc2)OC[C@H]1NCc1ccc2c(c1)CCO2 [6c, D-507, (2S,4R,5R)-2-(bis(4-fluorophenyl)methyl)-5-(((2,3-dihydrobenzofuran-5-yl)methyl)amino)tetrahydro-2H-pyran-4-ol]	17	54 ± 7.8	25.8 ± 5	
COc1cc(CN[C@@H]2CO[C@H](C(c3ccccc3)c3ccccc3)C[C@H]2O)ccc1O [4c, D-501, (2S,4R,5R)-2-benzhydryl-5-((4-hydroxy-3-methoxybenzyl)amino)tetrahydro-2H-pyran-4-ol]	167 ± 36			
c1ccc(C(c2ccccc2)[C@@H]2CC[C@H](NCc3ccc4occc4c3)CO2)cc1 (as salt: hydrochloride) [2a, D-484, (3S,6S)-6-benzhydryl-N-(benzofuran-5-ylmethyl)tetrahydro-2H-pyran-3-amine]				140 to 142
CCNc1ccc(CN[C@@H]2CO[C@H](C(c3ccc(F)cc3)c3ccc(F)cc3)C[C@H]2O)cc1 [6m, D-530, (2S,4R,5R)-2-(bis(4-fluorophenyl)methyl)-5-((4-(ethylamino)benzyl)amino) tetrahydro-2H-pyran-4-ol]		320 ± 40		
c1ccc(C(c2ccccc2)[C@@H]2CC[C@H](NCc3ccc4cc[nH]c4c3)CO2)cc1 [2b, D-543]	56.3 ± 1.1	13.6 ± 1.6	20.8 ± 4.6	
COc1ccc(CN[C@@H]2CO[C@H](C(c3ccc(F)cc3)c3ccc(F)cc3)C[C@H]2O)cc1 [6a, D-473, (2S,4R,5R)-2-(bis(4-fluorophenyl)methyl)-5-((4-methoxybenzyl)amino)tetrahydro-2H-pyran-4-ol]	13.3 ± 2	46.7 ± 17	13.2 ± 3.5	
O[C@@H]1C[C@@H](C(c2ccc(F)cc2)c2ccc(F)cc2)OC[C@H]1NCc1ccc2c(c1)OCO2 [6b, D-506, (2S,4R,5R)-5-((benzo[d][1,3]dioxol-5-ylmethyl)amino)-2-(bis(4-fluorophenyl)methyl)tetrahydro-2H-pyran-4-ol]	37 ± 7.5			
COc1ccc(CN[C@@H]2CO[C@H](C(c3ccc(F)cc3)c3ccc(F)cc3)C[C@H]2O)cn1 [6p, D-537, (2S,4R,5R)-2-(bis(4-fluorophenyl)methyl)-5-(((6-methoxypyridin-3-yl)methyl)amino)tetrahydro-2H-pyran-4-ol]	20.1 ± 5.3	258 ± 26	28.4 ± 4	
COc1cc(O)cc(CN[C@@H]2CO[C@H](C(c3ccccc3)c3ccccc3)C[C@H]2O)c1 [4e, D-503, (2S,4R,5R)-2-benzhydryl-5-((3-hydroxy-5-methoxybenzyl)amino)tetrahydro-2H-pyran-4-ol]	209 ± 25	385 ± 42		
COc1ccc(CN[C@@H]2CO[C@H](C(c3ccc(F)cc3)c3ccc(F)cc3)C[C@H]2O)cc1O [6i, D-528, (2S,4R,5R)-2-(bis(4-fluorophenyl)methyl)-5-((3-hydroxy-4-methoxybenzyl)amino)tetrahydro-2H-pyran-4-ol]	7.94 ± 0.66	367 ± 52		
COc1cc(CN[C@@H]2CO[C@H](C(c3ccc(F)cc3)c3ccc(F)cc3)C[C@H]2O)ccc1O [6h, D-527, (2S,4R,5R)-2-(bis(4-fluorophenyl)methyl)-5-((4-hydroxy-3-methoxybenzyl)amino)tetrahydro-2H-pyran-4-ol]	8.94 ± 2.2	107 ± 11		
COc1cccc(CN[C@@H]2CO[C@H](C(c3ccccc3)c3ccccc3)C[C@H]2O)c1 [4g, D-523, (2S,4R,5R)-2-benzhydryl-5-((3-methoxybenzyl)amino)tetrahydro-2H-pyran-4-ol]	376 ± 68	27.2 ± 3	5.85 ± 1.27	
CN(C)c1ccc(CN[C@@H]2CO[C@H](C(c3ccc(F)cc3)c3ccc(F)cc3)C[C@H]2O)cc1 [6o, D-536, (2S,4R,5R)-2-(bis(4-fluorophenyl)methyl)-5-((4-(dimethylamino)benzyl)amino)tetrahydro-2H-pyran-4-ol]	41.3 ± 9.7	144 ± 26	56.6 ± 5.2	
Oc1ccc(CN[C@@H]2CO[C@H](C(c3ccc(F)cc3)c3ccc(F)cc3)C[C@H]2O)cc1F [6n, D-531, (2S,4R,5R)-2-(bis(4-fluorophenyl)methyl)-5-((3-fluoro-4-hydroxybenzyl)amino) tetrahydro-2H-pyran-4-ol]		334 ± 54		
O[C@@H]1C[C@@H](C(c2ccccc2)c2ccccc2)OC[C@H]1NCc1ccc2occc2c1 [4a, D-485, (2S,4R,5R)-2-benzhydryl-5-((benzofuran-5-ylmethyl)amino)tetrahydro-2H-pyran-4-ol]	234 ± 11	2.68 ± 0.094	33.6 ± 18.7	
O[C@@H]1C[C@@H](C(c2ccccc2)c2ccccc2)OC[C@H]1NCc1ccc2cc[nH]c2c1 [4b, D-544, (2S,4R,5R)-5-(((1H-indol-6-yl)methyl)amino)-2-benzhydryltetrahydro-2H-pyran-4-ol]	64 ± 6.1	9.6 ± 2.57	10 ± 3.5	
Oc1cc(O)cc(CN[C@@H]2CO[C@H](C(c3ccccc3)c3ccccc3)C[C@H]2O)c1 [4f, D-542, 5-((((3R,4R,6S)-6-benzhydryl-4-hydroxytetrahydro-2H-pyran-3-yl)amino)methyl)benzene-1,3-diol]	259 ± 44	3020	152 ± 29	
COc1ccc(CN[C@@H]2CO[C@H](C(c3ccccc3)c3ccccc3)C[C@H]2O)cc1O [4d, D-502, (2S,4R,5R)-2-benzhydryl-5-((3-hydroxy-4-methoxybenzyl)amino)tetrahydro-2H-pyran-4-ol]	58.6 ± 11.8	281 ± 37		
O[C@@H]1C[C@@H](C(c2ccc(F)cc2)c2ccc(F)cc2)OC[C@H]1NCc1ccc2occc2c1 [6d, D-508, (2S,4R,5R)-5-((benzofuran-5-ylmethyl)amino)-2-(bis(4-fluorophenyl)methyl)tetrahydro-2H-pyran-4-ol]	29.3 ± 2.4	68.4 ± 11.4	26.5 ± 6.6	
COc1cccc(CN[C@@H]2CO[C@H](C(c3ccc(F)cc3)c3ccc(F)cc3)C[C@H]2O)c1 [6e, D-524, (2S,4R,5R)-2-(bis(4-fluorophenyl)methyl)-5-((3-methoxybenzyl)amino)tetrahydro-2H-pyran-4-ol]	56.8 ± 7.6	129 ± 25		
Nc1ccc(CN[C@@H]2CO[C@H](C(c3ccc(F)cc3)c3ccc(F)cc3)C[C@H]2O)cc1 [6k, D-529, (2S,4R,5R)-5-((4-aminobenzyl)amino)-2-(bis(4-fluorophenyl)methyl) tetrahydro-2H-pyran-4-ol]	24.5 ± 1.2	339 ± 39		
COc1cc(O)cc(CN[C@@H]2CO[C@H](C(c3ccc(F)cc3)c3ccc(F)cc3)C[C@H]2O)c1 [6g, D-526, (2S,4R,5R)-2-(bis(4-fluorophenyl)methyl)-5-((3-hydroxy-5-methoxybenzyl)amino)tetrahydro-2H-pyran-4-ol]	25.6 ± 5.8	577 ± 94		

Reference: patent US9458124B2, “Substituted pyran derivatives” (Wayne State University, priority 2013, dated 2016)
